Patent publication US20210002725A1, “METHODS FOR THE DIAGNOSIS OF METABOLIC DISORDERS USING EPIMETABOLIC SHIFTERS, MULTIDIMENSIONAL INTRACELLULAR MOLECULES, OR ENVIRONMENTAL INFLUENCES” (Berg LLC, priority 2009, published 2021)
“Also recorded” adds a separate entry of the source.

Assays:
SKBr3 cells = test: Nexin assay for early and late apoptosis (flow cytometry); type: cell-based, human; settings: 50 μM or 100 μM Q10, 24 hours
Source text: The 7AAD dye will enter into cells with permeabilized cell membranes; primarily those cells that are in late apoptosis. Annexin-V-PE is a dye that binds to Phosphotidyl serine, which is exposed on the outer surface of the plasma membrane in early apoptotic cells. The Nexin reagent thus can be used to differentiate between different populations of apoptotic cells in a flow cytometer.

SCC cells = test: Real-time PCR Diabetes Array; type: cell-based; settings: 100 μM
Source text: The control cells were untreated cells.

ATP Citrate Lyase (ACL) = test: Western blot of ATP Citrate Lyase levels in cells treated with Coenzyme Q10; type: cell-based, human; settings: for ATP Citrate Lysase band Normalized Intensity: 48 h
Protocol: The whole cell pellets were resuspended one at a time in 1 mL of C7 buffer and transferred to labeled 15 mL tubes. The samples were then sonicated in the cold room on ice using 6 sonic pulses with the setting at #14. The samples were spun for a short time to 2500 g after sonication and the samples transferred to 2 ml tubes. The pH was verified of each sample (pH should be 9.0) using the foam remaining in the […] sample tubes.
After transfer each of the blots was placed in between 2 Whatman Filter papers and dried for 15-20 minutes. After drying the blots were labeled with the date, the type of samples and either blot 1 or blot 2 using a HB pencil. The molecular weight markers were outlined with the pencil and with single lines for the blue and a doublet for the colored markers. The blots were activated with methanol for 5 seconds, washed with water for 5 minutes, and TBST for 15 minutes. The blots were blocked for 1 hour with 5% blocking reagent in TBS-T at room temperature and then washed 3 times with TBS-T (1×-15′; 2×5′ each). Blot 1 was probed with the primary antibody for IDH1 (Cell Signaling #3997) in TBST with 5% BSA (at 1:1000 dilutions) and blot 2 with the rabbit polyclonal antibody for ATP Citrate Lyase in 5% BSA (Cell Signaling #4332) at 1:1000 dilution by incubation overnight at 4 deg C. with shaking. After the overnight incubation with primary antibodies, the blots were washed 3 times with TBS-T (1×-15′; 2×5′ each) and probed with the secondary antibody (antirabbit; 1:10,000 dilution) for 1 hon the orbital tilting shaker at room temperature. After 1 h of incubation with secondary antibodies, the blots were washed 3 times with TBS-T (1×-15′; 2×5′ each) and then incubated with ECF reagent for 5 mins and then each blot scanned with 5100 Fuji Laser scanner at 25 uM resolution, 16 bit, green laser, at 400V and at 500 V.
The samples were processed and run on a 4-12% Bis-Tris Novex NuPAGE gel as described above. The gels were run, transferred and stained essentially as described above.
The Isocitrate dehydrogenase blot was stripped by incubating for 30 minutes with methanol, followed by two 10 minute washes with TBS-T, then 30 minutes of incubation with stripping buffer at 50 deg C., and followed by two washes with 100 ml or more of TBS-T for 30′ each. The blot was scanned in laser scanner to check for complete stripping. The blot was activated with methanol for 5 seconds, washed with water for 5 minutes, and TBST for 15 minutes. The blot was blocked for 1 hour with 5% blocking reagent in TBS-T at room temperature and then washed 3 times with TBS-T (1×-15′; 2×5′ each). This was then probed with the rabbit polyclonal antibody for ATP Citrate Lyase in 5% BSA (Cell Signaling #4332) at 1:1000 dilution overnight at 4 deg C. with shaking. After the overnight incubation with primary antibody for ATP Citrate Lyase, the membrane was washed 3 times with TBS-T (1×-15′; 2×5′ each) and probed with the secondary antibody (antirabbit; 1:10,000 dilution) for 1 h on the orbital tilting shaker at room temperature. After 1 h of incubation with secondary antibodies, the blot was washed 3 times with TBS-T (1×-15′; 2×5′ each) and then incubated with ECF reagent for 5 minutes and then each blot scanned with 5100 Fuji Laser scanner at 25 uM resolution, 16 bit, green laser, at 400V and at 500 V.
In this experiment (western blot experiment 3), and in all of the experiments described below in this Example (i.e., western blot experiments 4 through 9), the cells were additionally treated with either 5 mM glucose (“5G”) or 22 mM glucose (“22G”). The samples derived from the cells were processed and run on a 4-12% Bis-Tris Novex NuPAGE gel as described above. The gels were run, transferred and stained essentially as described above.
The levels of IDH1, ATP citrate lyase and actin levels were determined by probing the blots with primary antibodies for IDH1, ATP citrate lyase and actin, essentially as described above.

Protocol for SK-MEL-28 mitochondria: The cells were harvested by washing and scraping the cells from T-160 flasks (4 for each time point). The cells were collected by centrifugation and the pellets flash frozen and stored at −80° C. The cell pellets were resuspended and ruptured using a 2 mL Dounce homogenizer. The reagents and method were obtained from a Mitochondria Isolation Kit for Cultured Cells (MitoSciences, Cat #MS852). The resultant mitochondria samples were divided into 75 μL aliquots (4-5 aliquots per sample) and stored at −80° C.
The samples were subjected to 2-D electrophoresis (in duplicate). Analysis of 525 protein spots in the comparative study was performed, comparing the control samples against the other time point samples (FIG. 11).

Q: For COC1=C(OC)C(=O)C(C/C=C(\C)CC/C=C(\C)CC/C=C(\C)CC/C=C(\C)CC/C=C(\C)CC/C=C(\C)CC/C=C(\C)CC/C=C(\C)CC/C=C(\C)CCC=C(C)C)=C(C)C1=O [Q10, Coenzyme Q10], which “early and late apoptosis” value (SKBr3 cells) is on record?
A: did not show any significant increases of early and late apoptosis

Q: What about the “Response at later time points (19, 48 hr)” value (SK-MEL-28 mitochondria; 100 μM Q10) of the same molecule?
A: drops more for 19; also recorded: back to normal at 48; also recorded: Up at 19 and 48 hr; also recorded: Up only at 19 hr; also recorded: drop to low levels

Q: And the “Response (direction) at 6 hr” value (SK-MEL-28 mitochondria; 100 μM Q10, 6 hr)?
A: Down and Up

Q: And the “TNFRSF1A gene Regulation” value (SCC cells; at 6 and 24 hours)?
A: Down regulated at 6 and 24

Q: What about the “G6PD gene Regulation” value (SCC cells; at 6 hours) of the same molecule?
A: Down regulated at 6 hours.

Q: What about the “ICAM1 gene Regulation” value (SCC cells; at 6 hours) of the same molecule?
A: Down regulated at 6 hours.

Q: What about the “INPPL1 gene Regulation” value (SCC cells; at 6 hours) of the same molecule?
A: Down regulated at 6 hours.

Q: What about the “NOS3 gene Regulation” value (SCC cells; at 6 hours) of the same molecule?
A: Down regulated at 6 hours.

Q: What about the “PIK3CD gene Regulation” value (SCC cells; at 6 hours) of the same molecule?
A: Down regulated at 6 hours.

Q: What about the “PPARA gene Regulation” value (SCC cells; at 6 hours) of the same molecule?
A: Down regulated at 6 hours.

Q: And the “PYGL gene Regulation” value (SCC cells; at 6 hours)?
A: Down regulated at 6 hours.

Q: What about the “SREBF1 gene Regulation” value (SCC cells; at 6 hours) of the same molecule?
A: Down regulated at 6 hours.

Q: And the “STXBP2 gene Regulation” value (SCC cells; at 6 hours)?
A: Down regulated at 6 hours.

Q: What about the “TNF gene Regulation” value (SCC cells; at 6 hours) of the same molecule?
A: Down regulated at 6 hours.

Q: And the “VEGFA gene Regulation” value (SCC cells; at 6 hours)?
A: Down regulated at 6 hours.

Q: What about the “ATP Citrate Lysase band Normalized Intensity” value (ATP Citrate Lyase (ACL); HASMC (Table 34), 5 g, 50 μM) of the same molecule?
A: 23341

Q: And the “ATP Citrate Lysase band Normalized Intensity” value (ATP Citrate Lyase (ACL); HASMC (Table 34), 5 g, 100 μM)?
A: 25544

Q: What about the “ATP Citrate Lysase band Normalized Intensity” value (ATP Citrate Lyase (ACL); HASMC (Table 34), 22 G, 50 μM) of the same molecule?
A: 21439

Q: And the “ATP Citrate Lysase band Normalized Intensity” value (ATP Citrate Lyase (ACL); HASMC (Table 34), 22 G, 100 μM)?
A: 19491

Q: What about the “ATP Citrate Lysase band Normalized Intensity” value (ATP Citrate Lyase (ACL); HASMC (Table 35), 5 g, 50 μM) of the same molecule?
A: 12056

Q: And the “ATP Citrate Lysase band Normalized Intensity” value (ATP Citrate Lyase (ACL); HASMC (Table 35), 5 g, 100 μM)?
A: 15265

Q: And the “ATP Citrate Lysase band Normalized Intensity” value (ATP Citrate Lyase (ACL); HASMC (Table 35), 22 G, 50 μM)?
A: 15857

Q: What about the “ATP Citrate Lysase band Normalized Intensity” value (ATP Citrate Lyase (ACL); HASMC (Table 35), 22 G, 100 μM) of the same molecule?
A: 13892

Q: And the “ATPCL Average Normalized Intensity” value (ATP Citrate Lyase (ACL); HDFa, 50 μM)?
A: ~7500

Q: And the “ATPCL Average Normalized Intensity” value (ATP Citrate Lyase (ACL); HDFa, 100 μM)?
A: ~25000

Q: What about the “ATP Citrate Lysase band Normalized Intensity” value (ATP Citrate Lyase (ACL); HepG2, 5 g, 50 μM) of the same molecule?
A: 24106

Q: What about the “ATP Citrate Lysase band Normalized Intensity” value (ATP Citrate Lyase (ACL); HepG2, 5 g, 100 μM) of the same molecule?
A: 22463

Q: What about the “ATP Citrate Lysase band Normalized Intensity” value (ATP Citrate Lyase (ACL); HepG2, 22 G, 50 μM) of the same molecule?
A: 31235

Q: And the “ATP Citrate Lysase band Normalized Intensity” value (ATP Citrate Lyase (ACL); HepG2, 22 G, 100 μM)?
A: 50588

Q: What about the “ATPCL Average Normalized Intensity” value (ATP Citrate Lyase (ACL); MCF-7, 50 μM) of the same molecule?
A: ~7500

Q: And the “ATP Citrate Lysase band Normalized Intensity” value (ATP Citrate Lyase (ACL); PACA2, 5 g, 50 μM)?
A: 8027

Q: And the “ATP Citrate Lysase band Normalized Intensity” value (ATP Citrate Lyase (ACL); PACA2, 5 g, 100 μM)?
A: 4942

Q: And the “ATP Citrate Lysase band Normalized Intensity” value (ATP Citrate Lyase (ACL); PACA2, 22 G, 50 μM)?
A: 9537

Q: What about the “ATP Citrate Lysase band Normalized Intensity” value (ATP Citrate Lyase (ACL); PACA2, 22 G, 100 μM) of the same molecule?
A: 14901
